According to the kinase profiling compilation of Christmann-Franck et al. (2016):

Experiments:
Experiment in all cases: SelectScreen, TR FRET
Details in all cases: compound 5.0 µM
[1] = biological target: ERBB4 (human) (UniProt Q15303)
[2] = biological target: RPS6KA1 KD1 KD2 (human) (UniProt Q15418)
[3] = biological target: BLK (human) (UniProt P51451)
[4] = biological target: RPS6KB1 (human) (UniProt P23443)
[5] = biological target: EPHB1 (human) (UniProt P54762)
[6] = biological target: STK25 (human) (UniProt O00506)
[7] = biological target: BTK (human) (UniProt Q06187)
[8] = test system: ABL1 (human), P00519 [G250E]
[9] = biological target: CLK1 (human) (UniProt P49759)
[10] = biological target: PRKCB1 (human) (UniProt P05771)
[11] = biological target: ABL2 (human) (UniProt P42684)
[12] = biological target: SRMS (human) (UniProt Q9H3Y6)
[13] = biological target: MAPKAPK3 (human) (UniProt Q16644)
[14] = biological target: MERTK (human) (UniProt Q12866)
[15] = biological target: FGFR3 (human) (UniProt P22607)
[16] = biological target: MET (human) (UniProt P08581)
[17] = test system: PDGFRA (human), P16234 [T674I]
[18] = biological target: MAPK11 (human) (UniProt Q15759)
[19] = biological target: TBK1 (human) (UniProt Q9UHD2)
[20] = biological target: DYRK4 (human) (UniProt Q9NR20)
[21] = biological target: EPHA1 (human) (UniProt P21709)
[22] = biological target: MAPK3 (human) (UniProt P27361)
[23] = biological target: SRPK2 (human) (UniProt P78362)
[24] = biological target: PAK4 (human) (UniProt O96013)
[25] = biological target: CAMK2A (human) (UniProt Q9UQM7)
[26] = biological target: PRKCH (human) (UniProt P24723)
[27] = biological target: RET (human) (UniProt P07949)
[28] = biological target: MAP2K1 (human) (UniProt Q02750)
[29] = biological target: FRK (human) (UniProt P42685)
[30] = biological target: ADRBK1 (human) (UniProt P25098)
[31] = biological target: RPS6KA3 KD1 KD2 (human) (UniProt P51812)
[32] = biological target: NEK2 (human) (UniProt P51955)
[33] = biological target: NEK1 (human) (UniProt Q96PY6)
[34] = biological target: FGR (human) (UniProt P09769)
[35] = biological target: MAP2K2 (human) (UniProt P36507)
[36] = biological target: ROCK1 (human) (UniProt Q13464)
[37] = biological target: PRKD2 (human) (UniProt Q9BZL6)
[38] = biological target: ROS1 (human) (UniProt P08922)
[39] = biological target: IGF1R (human) (UniProt P08069)
[40] = biological target: MAP4K4 (human) (UniProt O95819)

PRKD2 (human), sequence (Q9BZL6 whole entry, looked up): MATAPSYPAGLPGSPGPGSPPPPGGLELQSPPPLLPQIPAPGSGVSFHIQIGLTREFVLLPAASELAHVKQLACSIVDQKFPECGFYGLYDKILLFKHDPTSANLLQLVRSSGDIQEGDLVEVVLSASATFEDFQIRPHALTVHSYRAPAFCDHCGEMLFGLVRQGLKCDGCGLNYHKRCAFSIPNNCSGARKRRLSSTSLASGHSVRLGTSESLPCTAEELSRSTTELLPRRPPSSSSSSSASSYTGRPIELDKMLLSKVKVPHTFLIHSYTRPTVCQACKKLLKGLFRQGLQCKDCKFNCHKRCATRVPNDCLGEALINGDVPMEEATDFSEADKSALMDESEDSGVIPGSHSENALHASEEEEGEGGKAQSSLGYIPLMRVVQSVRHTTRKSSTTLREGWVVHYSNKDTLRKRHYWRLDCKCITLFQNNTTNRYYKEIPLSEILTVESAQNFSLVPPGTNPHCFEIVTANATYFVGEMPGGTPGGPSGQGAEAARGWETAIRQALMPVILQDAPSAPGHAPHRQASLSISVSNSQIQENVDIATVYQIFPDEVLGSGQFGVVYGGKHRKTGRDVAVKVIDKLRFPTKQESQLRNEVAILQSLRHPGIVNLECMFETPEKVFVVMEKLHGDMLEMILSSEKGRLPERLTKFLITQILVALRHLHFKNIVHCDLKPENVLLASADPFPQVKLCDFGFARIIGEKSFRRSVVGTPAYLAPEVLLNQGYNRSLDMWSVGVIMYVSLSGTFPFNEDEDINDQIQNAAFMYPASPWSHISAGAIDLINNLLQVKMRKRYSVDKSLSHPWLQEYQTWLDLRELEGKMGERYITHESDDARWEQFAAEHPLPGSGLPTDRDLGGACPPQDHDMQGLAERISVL
IGF1R (human), sequence (P08069 whole entry, looked up): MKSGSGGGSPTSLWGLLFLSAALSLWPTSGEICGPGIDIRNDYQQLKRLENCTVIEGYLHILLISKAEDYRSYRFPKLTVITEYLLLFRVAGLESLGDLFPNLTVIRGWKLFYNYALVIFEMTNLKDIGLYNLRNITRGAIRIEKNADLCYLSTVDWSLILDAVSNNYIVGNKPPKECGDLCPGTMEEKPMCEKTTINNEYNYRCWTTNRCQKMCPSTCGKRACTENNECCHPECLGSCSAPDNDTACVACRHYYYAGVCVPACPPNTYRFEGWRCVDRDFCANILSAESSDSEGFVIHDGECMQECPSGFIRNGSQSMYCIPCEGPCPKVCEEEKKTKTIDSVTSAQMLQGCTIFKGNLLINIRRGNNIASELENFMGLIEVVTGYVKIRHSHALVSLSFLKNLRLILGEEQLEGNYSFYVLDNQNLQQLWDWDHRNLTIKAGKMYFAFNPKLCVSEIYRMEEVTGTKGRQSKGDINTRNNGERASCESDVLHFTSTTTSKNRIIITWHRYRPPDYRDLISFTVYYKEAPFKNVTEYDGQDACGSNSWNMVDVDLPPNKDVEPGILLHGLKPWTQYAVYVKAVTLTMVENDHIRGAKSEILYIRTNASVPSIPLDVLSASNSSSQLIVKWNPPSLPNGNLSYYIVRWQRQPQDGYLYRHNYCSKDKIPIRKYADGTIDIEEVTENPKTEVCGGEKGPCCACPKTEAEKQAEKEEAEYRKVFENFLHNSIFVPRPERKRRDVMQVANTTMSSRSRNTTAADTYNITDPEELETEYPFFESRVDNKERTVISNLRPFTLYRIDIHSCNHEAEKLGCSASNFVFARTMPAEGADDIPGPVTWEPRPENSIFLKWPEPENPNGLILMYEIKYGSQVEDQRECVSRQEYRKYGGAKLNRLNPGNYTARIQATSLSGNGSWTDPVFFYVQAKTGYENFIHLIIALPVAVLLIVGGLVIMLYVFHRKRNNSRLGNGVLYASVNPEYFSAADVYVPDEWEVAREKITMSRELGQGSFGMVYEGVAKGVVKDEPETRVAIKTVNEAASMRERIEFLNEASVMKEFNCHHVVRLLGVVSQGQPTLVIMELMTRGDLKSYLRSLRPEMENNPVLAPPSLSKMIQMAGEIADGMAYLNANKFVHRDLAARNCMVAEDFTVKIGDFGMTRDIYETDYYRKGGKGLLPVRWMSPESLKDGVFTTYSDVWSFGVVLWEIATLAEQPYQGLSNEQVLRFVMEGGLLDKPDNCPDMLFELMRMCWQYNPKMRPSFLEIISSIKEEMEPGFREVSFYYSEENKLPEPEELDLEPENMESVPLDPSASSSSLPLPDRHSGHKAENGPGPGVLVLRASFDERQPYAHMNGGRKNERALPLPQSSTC
NEK2 (human), sequence (P51955 whole entry, looked up): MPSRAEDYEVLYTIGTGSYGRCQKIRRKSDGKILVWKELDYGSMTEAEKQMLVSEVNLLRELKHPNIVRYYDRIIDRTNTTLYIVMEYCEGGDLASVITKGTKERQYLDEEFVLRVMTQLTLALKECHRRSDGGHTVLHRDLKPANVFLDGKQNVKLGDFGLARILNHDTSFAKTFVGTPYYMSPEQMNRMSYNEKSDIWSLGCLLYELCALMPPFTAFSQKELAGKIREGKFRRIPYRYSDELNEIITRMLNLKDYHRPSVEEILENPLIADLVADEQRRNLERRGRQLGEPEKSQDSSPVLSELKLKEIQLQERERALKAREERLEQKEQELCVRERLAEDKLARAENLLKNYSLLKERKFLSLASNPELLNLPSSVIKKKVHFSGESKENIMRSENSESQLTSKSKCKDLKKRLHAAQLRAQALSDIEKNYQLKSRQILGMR
MET (human), sequence (P08581 whole entry, looked up): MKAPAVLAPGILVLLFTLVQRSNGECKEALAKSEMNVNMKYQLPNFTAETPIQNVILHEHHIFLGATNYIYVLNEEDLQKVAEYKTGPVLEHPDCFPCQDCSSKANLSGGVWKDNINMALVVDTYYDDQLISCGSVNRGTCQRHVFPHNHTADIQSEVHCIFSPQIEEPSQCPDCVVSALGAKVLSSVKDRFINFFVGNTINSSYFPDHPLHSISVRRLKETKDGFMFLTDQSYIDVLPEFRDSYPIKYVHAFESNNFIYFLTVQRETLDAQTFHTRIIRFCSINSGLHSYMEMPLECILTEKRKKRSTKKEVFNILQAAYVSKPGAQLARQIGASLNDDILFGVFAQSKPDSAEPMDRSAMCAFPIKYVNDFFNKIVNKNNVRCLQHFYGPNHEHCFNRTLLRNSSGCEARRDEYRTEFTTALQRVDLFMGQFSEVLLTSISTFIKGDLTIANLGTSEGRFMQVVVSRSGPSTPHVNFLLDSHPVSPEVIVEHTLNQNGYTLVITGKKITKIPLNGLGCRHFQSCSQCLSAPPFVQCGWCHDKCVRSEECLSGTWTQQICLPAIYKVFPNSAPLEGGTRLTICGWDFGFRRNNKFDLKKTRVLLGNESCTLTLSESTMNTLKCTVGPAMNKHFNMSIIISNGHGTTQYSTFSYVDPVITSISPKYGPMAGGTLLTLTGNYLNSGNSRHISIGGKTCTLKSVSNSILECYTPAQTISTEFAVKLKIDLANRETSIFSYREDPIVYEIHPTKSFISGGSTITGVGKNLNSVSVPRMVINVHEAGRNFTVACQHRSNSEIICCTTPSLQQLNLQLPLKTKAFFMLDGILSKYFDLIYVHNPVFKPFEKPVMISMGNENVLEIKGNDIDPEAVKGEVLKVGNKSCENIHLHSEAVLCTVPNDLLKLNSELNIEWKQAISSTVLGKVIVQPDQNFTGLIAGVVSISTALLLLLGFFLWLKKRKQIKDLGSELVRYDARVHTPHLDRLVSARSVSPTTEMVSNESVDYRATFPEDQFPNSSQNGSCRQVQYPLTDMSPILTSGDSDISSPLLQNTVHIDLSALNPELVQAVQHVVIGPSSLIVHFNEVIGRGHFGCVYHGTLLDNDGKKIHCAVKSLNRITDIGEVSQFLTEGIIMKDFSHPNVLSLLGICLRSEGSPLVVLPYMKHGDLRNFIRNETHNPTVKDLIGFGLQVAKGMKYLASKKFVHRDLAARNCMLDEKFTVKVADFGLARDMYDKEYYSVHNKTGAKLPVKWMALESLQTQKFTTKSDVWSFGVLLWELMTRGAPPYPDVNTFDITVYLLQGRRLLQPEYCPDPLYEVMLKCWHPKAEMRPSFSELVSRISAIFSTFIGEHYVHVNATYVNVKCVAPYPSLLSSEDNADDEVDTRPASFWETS
MAPK3 (human), sequence (P27361 whole entry, looked up): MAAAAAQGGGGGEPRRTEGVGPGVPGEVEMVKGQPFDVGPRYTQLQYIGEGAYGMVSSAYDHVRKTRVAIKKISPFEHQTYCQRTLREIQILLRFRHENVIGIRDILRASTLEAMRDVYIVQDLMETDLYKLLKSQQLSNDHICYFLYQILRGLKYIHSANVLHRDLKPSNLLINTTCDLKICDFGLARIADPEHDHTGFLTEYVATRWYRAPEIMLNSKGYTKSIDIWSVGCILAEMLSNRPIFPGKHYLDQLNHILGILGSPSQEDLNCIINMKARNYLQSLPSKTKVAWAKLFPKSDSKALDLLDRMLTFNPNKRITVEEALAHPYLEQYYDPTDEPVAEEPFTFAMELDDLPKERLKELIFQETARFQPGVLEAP
RPS6KB1 (human), sequence (P23443 whole entry, looked up): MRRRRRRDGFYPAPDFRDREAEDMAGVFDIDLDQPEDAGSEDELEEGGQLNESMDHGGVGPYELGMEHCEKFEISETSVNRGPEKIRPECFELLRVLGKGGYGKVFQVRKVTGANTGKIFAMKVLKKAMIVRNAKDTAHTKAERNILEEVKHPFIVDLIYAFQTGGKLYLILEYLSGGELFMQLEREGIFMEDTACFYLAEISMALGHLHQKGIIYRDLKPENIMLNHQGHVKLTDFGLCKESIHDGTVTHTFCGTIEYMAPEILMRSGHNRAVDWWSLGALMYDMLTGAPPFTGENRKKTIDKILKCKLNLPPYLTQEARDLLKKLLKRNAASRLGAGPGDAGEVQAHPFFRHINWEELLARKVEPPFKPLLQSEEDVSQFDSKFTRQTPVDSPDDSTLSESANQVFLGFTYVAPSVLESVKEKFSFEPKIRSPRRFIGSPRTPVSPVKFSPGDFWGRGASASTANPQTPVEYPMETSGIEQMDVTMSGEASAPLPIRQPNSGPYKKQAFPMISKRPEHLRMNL

- inhibition [1]: 10%
- inhibition [2]: 5%
- inhibition [3]: -3%
- inhibition [4]: 8%
- inhibition [5]: 3%
- inhibition [6]: 6%
- inhibition [7]: 3%
- inhibition [8]: -4%
- inhibition [9]: 32%
- inhibition [10]: 30%
- inhibition [11]: -3%
- inhibition [12]: 13%
- inhibition [13]: 1%
- inhibition [14]: 3%
- inhibition [15]: 2%
- inhibition [16]: 5%
- inhibition [17]: 11%
- inhibition [18]: 4%
- inhibition [19]: 7%
- inhibition [20]: 3%
- inhibition [21]: -2%
- inhibition [22]: 7%
- inhibition [23]: 7%
- inhibition [24]: -2%
- inhibition [25]: 2%
- inhibition [26]: 4%
- inhibition [27]: -4%
- inhibition [28]: 4%
- inhibition [29]: 2%
- inhibition [30]: 1%
- inhibition [31]: 2%
- inhibition [32]: 7%
- inhibition [33]: 8%
- inhibition [34]: 15%
- inhibition [35]: 3%
- inhibition [36]: -2%
- inhibition [37]: 2%
- inhibition [38]: 27%
- inhibition [39]: 1%
- inhibition [40]: 1%
Structure (SMILES): Nc1cc(C(F)(F)F)c(-c2cc(N3CCOCC3)nc(N3CCOCC3)n2)cn1
